Some test systems named below: SK-OV-3; NCI-H226; OVCAR-8; MDA-MB-231; UACC-257; SF-539; NCI-H460; MCF7; M14; SK-MEL-5; OVCAR-4; MOLT-4; RXF 393; CCRF-CEM; SR; HCT-15; CAKI-1; K562; SK-MEL-2; UO-31.
What all share (assay): NCI tumour cell line growth inhibition, 48 h

Molecules are shown by their SMILES.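 The compound was tested at five concentrations on cells cultured in 96-well plates, with a 48-hour exposure period. The concentration for 50% growth inhibition is given as GI50.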 The source made the active and inactive calls. No stated cut-off is given here; in the data, active = GI50 up to about 1.1 µM and inactive = higher.

For `NCc1nnn(Cc2ccccc2)c1N`, the GI50 with SK-OV-3, in the experiment on NCI-H226, in the experiment on OVCAR-8, in the experiment on MDA-MB-231, in the experiment with UACC-257 and in the experiment with SF-539 was > 100 µM (inactive) throughout. Also, the GI50 in the experiment with NCI-H460, in the experiment with MCF7, in the experiment with M14, with SK-MEL-5, in the experiment on OVCAR-4 and with MOLT-4 was > 100 µM (inactive) in each case. The GI50 in the experiment with RXF 393 was > 100 µM (inactive); in the experiment with CCRF-CEM, > 100 µM (inactive); in the experiment on SR, > 100 µM (inactive); with HCT-15, over 100 µM; with CAKI-1, > 100 µM (inactive); in the experiment on K562, > 100 µM (inactive). Moreover, in the experiment on SK-MEL-2, the GI50 is > 100 µM (inactive).
As for `c1ccc2c[n+](CCCC[n+]3ccc4ccccc4c3)ccc2c1`, the GI50 in the experiment on SK-OV-3, in the experiment on NCI-H226, in the experiment with OVCAR-8, with MDA-MB-231, in the experiment on UACC-257 and in the experiment on SF-539 was > 100 µM (inactive) in each case. The GI50 in the experiment with NCI-H460 was > 100 µM (inactive); in the experiment on MCF7, > 100 µM (inactive); with M14 it was 1.12 µM (active); in the experiment on SK-MEL-5, > 100 µM (inactive); in the experiment with OVCAR-4, > 100 µM (inactive); with RXF 393 it was > 100 µM (inactive). Besides, the GI50 was > 100 µM (inactive) in the experiment with CCRF-CEM; > 100 µM (inactive) with SR; over 100 µM in the experiment with HCT-15; > 100 µM (inactive) with CAKI-1; > 100 µM (inactive) with K562; > 100 µM (inactive) in the experiment with SK-MEL-2.
`CCOc1ccc(NC2=CC(=O)C(=O)c3ccccc32)cc1`: the GI50 is 11.3 µM (inactive) in the experiment with SK-OV-3; 4.45 µM (inactive) with UO-31; 4.86 µM (inactive) in the experiment on NCI-H226; 4.33 µM (inactive) with OVCAR-8; 12.1 µM (inactive) with MDA-MB-231; 1.63 µM (inactive) in the experiment with UACC-257. The GI50 was 1.97 µM (inactive) in the experiment on SF-539; 2.47 µM (inactive) in the experiment on NCI-H460; 2.15 µM (inactive) with MCF7; 1.75 µM (inactive) in the experiment with M14; 1.59 µM (inactive) in the experiment with SK-MEL-5; 3.48 µM (inactive) in the experiment with OVCAR-4. Moreover, the GI50 is 8.83 µM (inactive) with MOLT-4; 5.87 µM (inactive) in the experiment on RXF 393; 9.48 µM (inactive) in the experiment with CCRF-CEM; 3.4 µM (inactive) with SR; 2.34 µM in the experiment with HCT-15; 8.05 µM (inactive) with CAKI-1. For the same molecule, the values for the GI50 in the experiment on K562 and in the experiment with SK-MEL-2 were 5.07 µM (inactive) and 4.31 µM (inactive), respectively.
For the molecule `CC1=CC=CC(C)(C)CC1(O[Si](C)(C)C)C(F)(F)F` (stereo unspecified), the GI50 with SK-OV-3, in the experiment with UO-31, in the experiment on NCI-H226, with OVCAR-8, in the experiment with MDA-MB-231 and with UACC-257 was > 100 µM (inactive) each time. Also, the GI50 was > 100 µM (inactive) with SF-539; > 100 µM (inactive) with NCI-H460; 92.7 µM (inactive) in the experiment on MCF7; > 100 µM (inactive) in the experiment with M14; > 100 µM (inactive) in the experiment on SK-MEL-5; > 100 µM (inactive) in the experiment on OVCAR-4. Also, the GI50 with RXF 393 is > 100 µM (inactive); in the experiment with CCRF-CEM, > 100 µM (inactive); with SR, > 100 µM (inactive); with HCT-15, over 100 µM; in the experiment on CAKI-1, > 100 µM (inactive); in the experiment on K562, 76.4 µM (inactive). The GI50 in the experiment with SK-MEL-2 was > 100 µM (inactive).
For the molecule `O=C(NNCc1ccco1)c1cc2ccccc2[nH]1`, the GI50 in the experiment on SK-OV-3 was > 56 µM (inactive); with UO-31 it was > 74.6 µM (inactive); with NCI-H226 it was > 100 µM (inactive); in the experiment with OVCAR-8, > 53.1 µM (inactive); in the experiment with MDA-MB-231, > 100 µM (inactive); in the experiment on UACC-257, > 62.5 µM (inactive). The GI50 in the experiment with SF-539 is > 61.9 µM (inactive); with NCI-H460, > 71.4 µM (inactive); in the experiment on MCF7 it was 0.133 µM (active); in the experiment with M14, > 94 µM (inactive); in the experiment with SK-MEL-5 it was > 100 µM (inactive); in the experiment with OVCAR-4, > 39.1 µM (inactive). For the same molecule, the GI50 is > 100 µM (inactive) with MOLT-4; > 100 µM (inactive) with RXF 393; > 100 µM (inactive) with CCRF-CEM; > 78.9 µM (inactive) in the experiment with SR; over 87.5 µM with HCT-15; > 100 µM (inactive) in the experiment with CAKI-1. For the same molecule, the GI50 in the experiment with K562 and with SK-MEL-2 was > 100 µM (inactive) in each case.
For `O=c1ccn(C2OC(CO)C(P(=O)(O)O)C2O)c(=O)[nH]1` (stereo unspecified), the GI50 with UO-31, in the experiment on NCI-H226, in the experiment with OVCAR-8, in the experiment with MDA-MB-231, in the experiment with UACC-257 and in the experiment on SF-539 was > 100 µM (inactive) in each case. The GI50 with NCI-H460, with MCF7, in the experiment on M14, in the experiment with SK-MEL-5, in the experiment with OVCAR-4 and in the experiment on MOLT-4 was > 100 µM (inactive) each time. Besides, the GI50 in the experiment on RXF 393 is > 100 µM (inactive); in the experiment with CCRF-CEM, > 100 µM (inactive); in the experiment on SR it was > 100 µM (inactive); in the experiment on HCT-15 it was over 100 µM; in the experiment with CAKI-1, > 100 µM (inactive); in the experiment on K562, > 100 µM (inactive). For the same molecule, the GI50 in the experiment on SK-MEL-2 is > 100 µM (inactive).
Consider `CC(C)OP(=O)(OC(C)C)/C(C#N)=C/c1ccco1`, for which the GI50 was > 100 µM (inactive) in the experiment on SK-OV-3; 5.19 µM (inactive) in the experiment on UO-31; > 100 µM (inactive) in the experiment on NCI-H226; > 100 µM (inactive) with OVCAR-8; > 100 µM (inactive) in the experiment with MDA-MB-231; > 100 µM (inactive) in the experiment on UACC-257. Besides, the GI50 in the experiment on SF-539, in the experiment on NCI-H460, with MCF7, in the experiment on M14, in the experiment with SK-MEL-5 and with OVCAR-4 was > 100 µM (inactive) each time. For the same molecule, the GI50 with MOLT-4 is > 100 µM (inactive); in the experiment with RXF 393, > 100 µM (inactive); in the experiment with CCRF-CEM it was > 100 µM (inactive); in the experiment on SR, > 100 µM (inactive); in the experiment on HCT-15, over 100 µM; in the experiment on CAKI-1, > 100 µM (inactive). For the same molecule, the GI50 in the experiment with K562 and in the experiment with SK-MEL-2 was > 100 µM (inactive) each time.
Consider `N#CC1C=Cc2ccccc2N1C(=O)Oc1ccccc1` (stereo unspecified), for which the GI50 in the experiment with UO-31 is 41.7 µM (inactive); in the experiment with NCI-H226 it was 42.5 µM (inactive); in the experiment on OVCAR-8, 48.8 µM (inactive); with MDA-MB-231, 68.2 µM (inactive); in the experiment on UACC-257, 76.9 µM (inactive); with SF-539, 69.8 µM (inactive). Besides, the GI50 in the experiment on NCI-H460 is 41.4 µM (inactive); in the experiment with MCF7, 41.8 µM (inactive); with M14, 46.7 µM (inactive); with SK-MEL-5, 46.5 µM (inactive); in the experiment with OVCAR-4, 40.6 µM (inactive); in the experiment on MOLT-4, 28.2 µM (inactive). Also, the GI50 in the experiment with RXF 393 was 66.4 µM (inactive); in the experiment with CCRF-CEM it was 19.9 µM (inactive); with SR it was 33.8 µM (inactive); in the experiment on HCT-15 it was 42.1 µM; in the experiment on CAKI-1 it was 84.3 µM (inactive); in the experiment on K562 it was 32.3 µM (inactive). Also, in the experiment on SK-MEL-2, the GI50 is 23.1 µM (inactive).
As for `COc1cc(C(=O)OC2CC34CCNC35CC(OC5(OC)C2O)c2cc3c(cc24)OCO3)ccc1O` (stereo unspecified), the GI50 with SK-OV-3, in the experiment with NCI-H226, in the experiment on OVCAR-8, in the experiment with MDA-MB-231, in the experiment with UACC-257 and with SF-539 was > 100 µM (inactive) throughout. Besides, the GI50 in the experiment on NCI-H460, in the experiment on MCF7, in the experiment with M14, in the experiment on SK-MEL-5, in the experiment on OVCAR-4 and with MOLT-4 was > 100 µM (inactive) each time. The GI50 is > 100 µM (inactive) in the experiment with RXF 393; > 100 µM (inactive) in the experiment with CCRF-CEM; > 100 µM (inactive) in the experiment on SR; over 100 µM in the experiment on HCT-15; > 100 µM (inactive) in the experiment with CAKI-1; > 100 µM (inactive) in the experiment on K562. Further, the GI50 with SK-MEL-2 is > 100 µM (inactive).
Regarding `CCOC(=O)C1C[C@H]2CO[C@H](c3ccccc3)N2C1=O` (stereo partly specified), the GI50 in the experiment with UO-31, in the experiment on NCI-H226, in the experiment with OVCAR-8, in the experiment with MDA-MB-231, in the experiment on UACC-257 and in the experiment with SF-539 was > 100 µM (inactive) each time. In addition, the GI50 in the experiment with NCI-H460, in the experiment with MCF7, in the experiment on M14, in the experiment on SK-MEL-5, with OVCAR-4 and with MOLT-4 was > 100 µM (inactive) each time. In addition, the GI50 was > 100 µM (inactive) in the experiment on RXF 393; > 100 µM (inactive) with CCRF-CEM; > 100 µM (inactive) in the experiment with SR; over 100 µM with HCT-15; > 100 µM (inactive) with CAKI-1; > 100 µM (inactive) with K562. For the same molecule, the GI50 in the experiment on SK-MEL-2 was > 100 µM (inactive).
In the case of `O=C1CC(c2ccccc2Cl)Oc2ccccc21` (stereo unspecified), the GI50 in the experiment on SK-OV-3 was > 100 µM (inactive); in the experiment with UO-31, 57.5 µM (inactive); in the experiment with NCI-H226, 3.84 µM (inactive); in the experiment with OVCAR-8 it was 26.4 µM (inactive); in the experiment on MDA-MB-231, 26.9 µM (inactive); in the experiment on UACC-257, > 100 µM (inactive). In addition, the GI50 was 16 µM (inactive) in the experiment with SF-539; 28.8 µM (inactive) with NCI-H460; 11.4 µM (inactive) in the experiment on MCF7; 25.9 µM (inactive) in the experiment on M14; 32.8 µM (inactive) with SK-MEL-5; 51.9 µM (inactive) in the experiment with OVCAR-4. Further, the GI50 in the experiment on RXF 393 is 17.2 µM (inactive); in the experiment on CCRF-CEM, 33.9 µM (inactive); with SR, 23.2 µM (inactive); with HCT-15, 24.7 µM; with CAKI-1, 40.9 µM (inactive); with K562, 17.3 µM (inactive). Also, in the experiment with SK-MEL-2, the GI50 was 19.9 µM (inactive).

(Values after ChEMBL document CHEMBL1201862, “PubChem BioAssay data set” (2004).)
